Laboratory results as given in patent US11040958B2, “Triazole antimicrobial derivative, pharmaceutical composition and use thereof” (priority 2017, dated 2021).
Like-named read-outs stand apart in the source and are kept apart here.

Key:
[1] = In vitro metabolic stability in rat intestinal S9; assay type: in vitro ADME; details: 37°C, S9 1 mg/mL, compound 10 μM, NADPH regeneration system
Protocol: (§1) The two reaction systems were set up three samples in parallel, while each sample was taken in an amount of 100 μL at 1 min, 2 mins, 5 mins, 15 mins, and 30 mins after the reaction, added to the centrifuge tube containing 400 μL of 0° C. pre-cooled internal standard working fluid and terminated the reaction. The sample was mixed by vortex for 1 min, centrifuged at 10,000×g for 10 mins in a 4° C. pre-cooled high-speed centrifuge. The supernatant was taken for HPLC detection. […] Concentration of mother liquor of compounds: 1 mM […] [table]

[2] = Solubility test in deionized water (HPLC, external calibration); assay type: physicochemical
Protocol: Experimental condition: 25±2° C.
Dissolving medium: deionized water
Experimental method: 1 mg voriconazole and appropriate amount of each compound were weighed, placed in 1 ml deionized water separately, shaken vigorously for 30 s every 5 mins for 30 mins.

[3] = Pharmacokinetics after single gastrointestinal (gavage) administration in rats (plasma voriconazole); assay type: in vivo; details: SD rats, 2.5 mg/kg (calculated as voriconazole)
Protocol: Dosing volume for administration: 10 ml/kg
Solvent medium for administration: except for the positive voriconazole group using CMC-Na, the other groups using normal saline
Route of administration: gavage

[4] = In vitro metabolic stability in human intestinal S9; assay type: in vitro ADME; details: 37°C, S9 1 mg/mL, compound 10 μM, NADPH regeneration system
Protocol: as §1

[5] = Pharmacokinetics after single intravenous administration in rats (plasma voriconazole)
Protocol: Dosage for administration: 2.5 mg/kg (calculated as voriconazole)
Dosing volume for administration: 2.5 ml/kg
Drug concentration: 1 mg/mL (calculated as voriconazole)
Route of administration: tail vein injection Experimental animals: SD rats, SPF grade, weighing 180-220 g, half male and half female; the SD rats were randomized into groups of 6 animals each, three males and three females in each group. Experimental method: Blood samples were collected at different time points after tail vein administration, and the plasma concentrations of voriconazole were measured.

[6] = In vitro metabolic stability in human plasma; assay type: in vitro ADME; details: 37°C, compound 10 μM
Protocol: The two reaction systems were set up three samples in parallel, while each sample was taken in an amount of 100 μL at 1 min, 2 mins, 5 mins, 15 mins, and 30 mins after the reaction, added to the centrifuge tube containing 400 μL of 0° C. pre-cooled internal standard working fluid and terminated the reaction. The sample was mixed by vortex for 1 min, centrifuged at 10,000×g for 10 mins in a 4° C. pre-cooled high-speed centrifuge. The supernatant was taken for HPLC detection.

[7] = In vitro metabolic stability in rat plasma; assay type: in vitro ADME; details: 37°C, compound 10 μM
Protocol: The two reaction systems were set up three samples in parallel, while each sample was taken in an amount of 100 μL at 1 min, 2 mins, 5 mins, 15 mins, and 30 mins after the reaction, added to the centrifuge tube containing 400 μL of 0° C. pre-cooled internal standard working fluid and terminated the reaction. The sample was mixed by vortex for 1 min, centrifuged at 10,000×g for 10 mins in a 4° C. pre-cooled high-speed centrifuge. The supernatant was taken for HPLC detection. […] Concentration of mother liquor of compounds: 1 mM […]

[8] = test system: Candida albicans ATCC10231; assay: Systemic fungal infection in mice, intravenous administration, survival; assay type: in vivo; details: ICR mice, tail vein, 5 mg/kg (calculated as voriconazole) once daily for 5 days
Protocol: (§2) ICR mice, weighing 18-22 g, male, provided by the Hubei Experimental Animal Center.
(§3) The standard strain Candida albicans was purchased from the American Type Culture Collection, and the strain number was ATCC10231.
Before the experiment, a small amount of Candida albicans was picked from the SDA medium preserved at 4° C. by inoculation circle, and inoculated into 1 ml YPD (Yeast Extract Peptone Dextrose Medium, the same below) culture medium, under shake cultivation at 30° C., 200 rpm, activated for 16 hours to make the fungus in the late stage of the exponential growth phase. Blood cell counting plate was used to count. The concentration of the broth was adjusted to 1*10^3-5*10^3 CFU/ml with RPMI1640 (Roswell Park Memorial Institute 1640, the same below) culture medium. The Candida albicans monoclone on the SDA plate was picked and inoculated into 1 ml YPD medium, cultured at 35° C., 200 rpm for 16 hours to the late exponential growth phase, 1% of which was then inoculated in fresh medium for 6 hours, centrifuged at 1000×g for 5 mins, washed three times with saline until the supernatant was colorless, while hemocytometer was used to count. The cell concentration was adjusted to 5*10^6/ml. The tail vein injection of 0.1 ml/10 g was carried out to cause a systemic fungal infection in mice. The mice were randomized into groups of 10 each. Since voriconazole was insoluble in vehicle (physiological saline), the mice of the voriconazole group in the test were injected a commercially available voriconazole (Pfizer, product lot number Z467001), that is, sulfobutyl ether-β-cyclodextrin used as a solubilizer, while other groups used physiological saline as a solvent. After establishing a systemic fungal infection model in mice for 2 hours, each administration group was administered with 5 mg/kg (calculated as voriconazole) drug in the tail vein, with the volume for administration of 0.1 ml/10 g. The mice in the model group were administered 0.1 ml/10 g of 0.9% sodium chloride solution, once daily, for 5 consecutive days. The death situation of the mice was inspected and the survival time was recorded. After a total of 7 days of observation, all dead mice were treated with fire using ethanol.

[9] = test system: Candida albicans ATCC10231; assay: Systemic fungal infection in mice, administration by gavage, survival; assay type: in vivo; details: ICR mice, 5 mg/kg (calculated as voriconazole) once daily for 5 days
Protocol: as §2, §3
Before the experiment, a small amount of Candida albicans was picked from the SDA medium preserved at 4° C. by inoculation circle, inoculated into 1 ml of YPD culture medium, and cultured at 30° C. while being shaken at 200 rpm for 16 hours to make the fungus in the late stage of exponential growth. Blood cell counting plate was used to count, and the concentration of the broth was adjusted to 1*10^3−5*10^3 CFU/ml with RPMI1640 medium. The Candida albicans monoclone on the SDA plate was picked, inoculated into 1 ml YPD medium, cultured at 35° C., 200 rpm for 16 hours to the late exponential growth phase, 1% of which was then inoculated in fresh medium for 6 hours, centrifuged at 1000×g for 5 mins, washed three times with saline until the supernatant was colorless, while hemocytometer was used to count. The cell concentration was adjusted to 5*10^6/ml. The tail vein injection of 0.1 ml/10 g was carried out to cause a systemic fungal infection in mice. The mice were randomized into groups of 10 each. Voriconazole used was in the form of a suspension prepared with CMC-Na (Shanghai Panhong Chemical Technology Co., Ltd.), while other tested drugs were dissolved in saline and sonicated until clarified for administration. After establishing a systemic fungal infection model in mice for 2 hours, each group was administered by gavage with 5 mg/kg (calculated as voriconazole) drug, with the volume for administration of 0.1 ml/10 g. The mice in the model group were administered 0.1 ml/10 g of 0.9% sodium chloride solution, once daily, for 5 consecutive days. The death situation of the mice was inspected and the survival time was recorded. After a total of 7 days of observation, all dead mice were treated with fire using ethanol.

[10] = voriconazole in plasma, SD rats, tail vein injection, 2.5 mg/kg (calculated as voriconazole)

SMILES | Rat intestinal S9 T1/2 [1] | AUClast [3] | Cmax [3] | T1/2 [3] | Human intestinal S9 T1/2 [4] | Human plasma T1/2 [6] | Rat plasma T1/2 [7] | survival rate of mice, day 1 [8] | survival rate of mice, day 2 [8] | survival rate of mice, day 3 [8] | survival rate of mice, day 4 [8] | survival rate of mice, day 5 [8] | survival rate of mice, day 6 [8] | survival rate of mice, day 1 [9] | survival rate of mice, day 2 [9] | survival rate of mice, day 3 [9] | survival rate of mice, day 4 [9] | survival rate of mice, day 5 [9] | survival rate of mice, day 6 [9] | survival rate of mice, day 7 [9] | also measured
CC(OC(=O)N(C)c1ncccc1COC(=O)CN)[n+]1cnn(C[C@](O)(c2ccc(F)cc2F)[C@@H](C)c2ncncc2F)c1.[Cl-] (some centres unmarked) [QR16001] | 10.15 ± 2.65 min | 8562 ± 1125 ng·h/mL | 789 ± 362 ng/mL | 193 ± 76.8 min | 10.09 ± 1.75 min | 1.56 ± 0.26 min | 1.23 ± 0.45 min | 100% | 100% | 100% | 100% | 100% | 100% | 100% | 100% | 100% | 100% | 90% | 80% | 80% | Solubility ([2]; deionized water, 25±2°C): >50 mg/mL; AUClast ([5]; rat, in vivo, 2.5 mg/kg): 10515 ± 1985 ng·h/mL; T1/2 ([5]; rat, in vivo, 2.5 mg/kg): 128 ± 58.8 min
CC(OC(=O)N(C)c1ncccc1COC(=O)C(N)CO)[n+]1cnn(CC(O)(c2ccc(F)cc2F)C(C)c2ncncc2F)c1.Cl.Cl.[Cl-] (centres unmarked) [QR16015] | 15.95 ± 4.96 min | 8144 ± 1468 ng·h/mL | 996 ± 365 ng/mL | 167 ± 73.8 min | 12.72 ± 1.72 min | 2.05 ± 0.26 min | 1.58 ± 0.95 min | 100% | 100% | 100% | 100% | 100% | 90% | 100% | 100% | 100% | 100% | 100% | 80% | 80% | Solubility ([2]; deionized water, 25±2°C): >50 mg/mL; AUClast ([5]; rat, in vivo, 2.5 mg/kg): 10526 ± 2695 ng·h/mL; T1/2 ([5]; rat, in vivo, 2.5 mg/kg): 171 ± 107 min
CC(O)C(N)C(=O)OCc1cccnc1N(C)C(=O)OC(C)[n+]1cnn(CC(O)(c2ccc(F)cc2F)C(C)c2ncncc2F)c1.Cl.Cl.[Cl-] (centres unmarked) [QR16016] | 19.62 ± 3.69 min | 8332 ± 3254 ng·h/mL | 885 ± 344 ng/mL | 134 ± 75 min | 15.72 ± 0.98 min | 2.12 ± 1.07 min | 1.95 ± 0.87 min | 100% | 100% | 100% | 100% | 100% | 90% | 100% | 100% | 90% | 90% | 90% | 90% | 80% | Solubility ([2]; deionized water, 25±2°C): >50 mg/mL; AUClast ([5]; rat, in vivo, 2.5 mg/kg): 10477 ± 1854 ng·h/mL; T1/2 ([5]; rat, in vivo, 2.5 mg/kg): 159 ± 52.8 min
CC(OC(=O)N(C)c1ncccc1COC(=O)[C@@H](N)CCCCN)[n+]1cnn(C[C@](O)(c2ccc(F)cc2F)[C@@H](C)c2ncncc2F)c1.[Cl-] (some centres unmarked) [QR16017] | 15.69 ± 6.95 min | 8695 ± 2958 ng·h/mL | 952 ± 421 ng/mL | 177 ± 75 min | 11.25 ± 2.21 min | 0.95 ± 0.28 min | 0.78 ± 0.86 min | 100% | 100% | 100% | 100% | 100% | 100% | 100% | 100% | 90% | 90% | 90% | 90% | 80% | Solubility [2]: >50 mg/mL; AUClast [5, 10]: 10259 ± 3285 ng·h/mL; T1/2 [5, 10]: 167 ± 45 min
